{"source": "patent US20120302500A1", "about": "“USE OF SO[…] IN MENINGIOMA” (NOVARTIS AG, priority 2008, published 2012)", "origin": "cited, not measured here", "details": "in vivo", "note": "Starred links: 1 amine or outer side, 2 acyl side, 3 side chain; linkers in the order of their positions; H or OH if unused. Non-standard residues stand in square brackets, D forms with d. Residues, ends and D or L forms follow the SMILES beside them. Groups on a side chain read outwards from the residue. *: point of attachment. Ethylenediamine = C(CN[*:2])N[*:1]; Hyp = O=C(O)[C@@H]1C[C@@H](O)CN1; Phg = N[C@H](C(=O)O)c1ccccc1; CO = O=C([*:1])[*:2]; Bn = c1ccc(C*)cc1", "data": [{"compound": "NCCCC[C@@H]1NC(=O)[C@@H](Cc2c[nH]c3ccccc23)NC(=O)[C@H](c2ccccc2)NC(=O)[C@@H]2C[C@@H](OC(=O)NCCN)CN2C(=O)[C@H](Cc2ccccc2)NC(=O)[C@H](Cc2ccc(OCc3ccccc3)cc2)NC1=O", "note": "[pasireotide, cyclo[{4-(NH2—C2H4—NH—CO—O—)Pro}-Phg-DTrp-Lys-Tyr(4-Bzl)-Phe]] (cyclo([Hyp]([CO-Ethylenediamine])[Phg][dW]KY(Bn)F))", "values": [{"measurement": "half-life", "value": 11, "unit": "h"}]}]}
